Data published in patent publication US11420935B2, “Bicyclic compounds” (Vivace Therapeutics, Inc., priority 2019, dated 2022).

Test system: 8×TBD luciferase reporter (YAP) in HEK293T cells
Experiment: YAP Reporter Assay (8×TBD firefly luciferase reporter)
Type: cell-based
Conditions: Homo sapiens, HEK-293T; HEK293T cells stably transfected with 8×TBD luciferase reporter and pRLTK; 24-hr incubation; firefly luciferase activity; read-out: Firefly Luciferase IC50
Procedure, shortened: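 Stably transfected HEK293T cells (8×TBD firefly luciferase plus TK-renilla) were dosed with 10-point 1:3 dilutions from 3 μM final, quadruplicates, for 24 h at 37 °C. Dual-Glo read firefly and renilla luminescence; IC50 and maximal inhibition reported separately for each.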

First: C[C@H](NC(=O)c1ccc2c(Oc3ccc(C(F)(F)F)cc3)cccc2c1)C1(O)CNC1 [Compound 138, (S)—N-(1-(3-hydroxyazetidin-3-yl)ethyl)-5-(4-(trifluoromethyl)phenoxy)-2-naphthamide]
Second: C[C@@H](NC(=O)c1ccc2c(Oc3ccc(C(F)(F)F)cc3)cccc2c1)C1(O)CNC1 [Compound 139, (R)—N-(1-(3-hydroxyazetidin-3-yl)ethyl)-5-(4-(trifluoromethyl)phenoxy)-2-naphthamide]
The IC50 of the first is higher: 100 to 1000 nM for the first, under 100 nM for the second. The second is the more potent here.

First: O=C(N[C@@H](CO)C1CNC1)c1ccc2c(Oc3ccc(C(F)(F)F)cc3)cccc2c1 [Compound 140, (R)—N-(1-(azetidin-3-yl)-2-hydroxyethyl)-5-(4-(trifluoromethyl)phenoxy)-2-naphthamide]
Second: O=C(N[C@H](CO)C1CNC1)c1ccc2c(Oc3ccc(C(F)(F)F)cc3)cccc2c1 [Compound 142, (S)—N-(1-(azetidin-3-yl)-2-hydroxyethyl)-5-(4-(trifluoromethyl)phenoxy)-2-naphthamide]
The IC50 of the first is higher: 1000 to 3000 nM for the first, 100 to 1000 nM for the second.

`C[C@H](CCN(C)C)NC(=O)c1ccc2c(Oc3ccc(C(F)(F)F)cc3)cccc2c1` [Compound 144, (R)-N-(4-(dimethylamino)butan-2-yl)-5-(4-(trifluoromethyl)phenoxy)-2-naphthamide] and `CNCC[C@@H](C)NC(=O)c1ccc2c(Oc3ccc(C(F)(F)F)cc3)cccc2c1` [Compound 145, (R)-N-(4-(methylamino)butan-2-yl)-5-(4-(trifluoromethyl)phenoxy)-2-naphthamide] cannot be ordered by IC50: under 100 nM for the first, under 100 nM for the second.

`CCNCC[C@@H](C)NC(=O)c1ccc2c(Oc3ccc(C(F)(F)F)cc3)cccc2c1` [Compound 146, (R)-N-(4-(ethylamino)butan-2-yl)-5-(4-(trifluoromethyl)phenoxy)-2-naphthamide] and `C[C@H](CCNCCO)NC(=O)c1ccc2c(Oc3ccc(C(F)(F)F)cc3)cccc2c1` [Compound 147, (R)-N-(4-((2-hydroxyethyl)amino)butan-2-yl)-5-(4-(trifluoromethyl)phenoxy)-2-naphthamide] cannot be ordered by IC50: under 100 nM for the first, under 100 nM for the second.

`C[C@H](CCNCCF)NC(=O)c1ccc2c(Oc3ccc(C(F)(F)F)cc3)cccc2c1` [Compound 148, (R)-N-(4-((2-fluoroethyl)amino)butan-2-yl)-5-(4-(trifluoromethyl)phenoxy)-2-naphthamide] and `C[C@H](CCNCC(F)F)NC(=O)c1ccc2c(Oc3ccc(C(F)(F)F)cc3)cccc2c1` [Compound 149, (R)-N-(4-((2,2-difluoroethyl)amino)butan-2-yl)-5-(4-(trifluoromethyl)phenoxy)-2-naphthamide] cannot be ordered by IC50: under 100 nM for the first, under 100 nM for the second.

`C[C@@H](NC(=O)c1ccc2c(Oc3ccc(C(F)(F)F)cc3)cccc2c1)C1CCNCC1` [Compound 150, (R)-N-(1-(piperidin-4-yl)ethyl)-5-(4-(trifluoromethyl)phenoxy)-2-naphthamide] and `C[C@@H](NC(=O)c1ccc2c(Oc3ccc(C(F)(F)F)cc3)cccc2c1)C1CCN(C)CC1` [Compound 157, (R)-N-(1-(1-methylpiperidin-4-yl)ethyl)-5-(4-(trifluoromethyl)phenoxy)-2-naphthamide] cannot be ordered by IC50: under 100 nM for the first, under 100 nM for the second.

First: C[C@H](NC(=O)c1ccc2c(Oc3ccc(C(F)(F)F)cc3)cccc2c1)C1(F)CNC1 [Compound 151, (S)-N-(1-(3-fluoroazetidin-3-yl)ethyl)-5-(4-(trifluoromethyl)phenoxy)-2-naphthamide]
Second: C[C@@H](NC(=O)c1ccc2c(Oc3ccc(C(F)(F)F)cc3)cccc2c1)C1(F)CNC1 [Compound 152, (R)-N-(1-(3-fluoroazetidin-3-yl)ethyl)-5-(4-(trifluoromethyl)phenoxy)-2-naphthamide]
The IC50 of the first is higher: 1000 to 3000 nM for the first, 100 to 1000 nM for the second. The second is the more potent here.

`C[C@@H](NC(=O)c1ccc2c(Oc3ccc(C(F)(F)F)cc3)cccc2c1)C1CCN(CCO)CC1` [Compound 153, (R)-N-(1-(1-(2-hydroxyethyl)piperidin-4-yl)ethyl)-5-(4-(trifluoromethyl)phenoxy)-2-naphthamide] and `C[C@@H](NC(=O)c1ccc2c(Oc3ccc(C(F)(F)F)cc3)cccc2c1)C1CCN(CCF)CC1` [Compound 154, (R)-N-(1-(1-(2-fluoroethyl)piperidin-4-yl)ethyl)-5-(4-(trifluoromethyl)phenoxy)-2-naphthamide] fall in the same range of IC50: 100 to 1000 nM for the first, 100 to 1000 nM for the second.

`CCN1CCC([C@@H](C)NC(=O)c2ccc3c(Oc4ccc(C(F)(F)F)cc4)cccc3c2)CC1` [Compound 155, (R)-N-(1-(1-ethylpiperidin-4-yl)ethyl)-5-(4-(trifluoromethyl)phenoxy)-2-naphthamide] and `C[C@@H](NC(=O)c1ccc2c(Oc3ccc(C(F)(F)F)cc3)cccc2c1)C1CCN(CC(F)F)CC1` [Compound 162, (R)-N-(1-(1-(2,2-difluoroethyl)piperidin-4-yl)ethyl)-5-(4-(trifluoromethyl)phenoxy)-2-naphthamide] fall in the same range of IC50: 100 to 1000 nM for the first, 100 to 1000 nM for the second.

With `CC(C)N1CCC([C@@H](C)NC(=O)c2ccc3c(Oc4ccc(C(F)(F)F)cc4)cccc3c2)CC1` [Compound 156, (R)-N-(1-(1-isopropylpiperidin-4-yl)ethyl)-5-(4-(trifluoromethyl)phenoxy)-2-naphthamide] the IC50 was 100 to 1000 nM.
